From US9394285B2 (Pfizer Inc., priority 2013, dated 2016)
Values joined by “and” are separate entries in the source; they are usually repeats but may differ in a detail not shown here. Equal entries are not always repeated.

Target: human AMPK (full-length γ1, β1 and α1 subunits) (Homo sapiens (Human), UniProt Q13131+Q9Y478)
Experiment: AMPK in vitro biochemical assay (33P-based, SAMS peptide, PP2A dephosphorylation)
Conditions: for EC50: activation of phosphorylated AMPK, 33P-ATP, SAMS peptide, PP2A treatment, 4-parameter fit; for Emax: read-out: Maximum
Description: We designed a tricistronic AMPK expression construct that included open reading frames encoding the full-length γ1, β1 and α1 subunits of human AMPK with a ribosome-binding site (RBS) ahead of each coding region and subcloned this into pET-14b expression vector (Novagen, Madison, Wis.) using standard molecular biology techniques. AMPK tricistronic construct was transformed into E. coli BL21-CodonPlus™ (DE3)-RIPL strain (Stratagene) and transformants were selected on LB (Luria-Bertani) agar plates containing ampicillin (100 μg/ml). […] Optical density sample measurements were made on an UltroSpec 2000 spectrophotometer (Pharmacia Biotech) at 600 nm. When the cell density reached ˜0.9 OD, the temperature was reduced to 18° C. and the culture was induced at 18° C. with 0.1 mM Isopropylthiogalactoside (IPTG). […] The cell pellets were aliquoted into four portions, flash frozen in liquid nitrogen and were stored at −80° C. until purification. For purification, frozen cell paste was thawed and resuspended in 50 ml lysis buffer (50 mM Tris, pH 8.0, 150 mM NaCl, 10% glycerol, 2 mM Tris-2-carboxyethyl phosphine (TCEP), 20 mM imidazole and 0.001% Triton X-100). After sonication, insoluble material was removed by centrifugation at 15,000 rpm in a Sorvall® RC5 plus centrifuge for 30 min at 4° C. and the supernatant was loaded onto a 5 ml HisTrap™ HP column (GE Healthcare, Piscataway, N.J.) and washed with five column volumes of lysis buffer. Bound proteins were eluted using an elution buffer containing 300 mM imidazole. Fractions containing AMPK subunits were pooled based on SDS-10% PAGE analysis and dialyzed overnight in dialysis buffer (50 mM Tris, pH 8.0, 150 mM NaCl, 10% glycerol, 2 mM TCEP, and 0.001% Triton X-100). […] The phosphorylated AMPK complex was re-purified on HisTrap™ HP column as before, dialyzed over night in dialysis buffer. The phosphorylated AMPK complex was further purified by gel filtration chromatography with a Superdex 200 HiLoad 16/60 column (GE Healthcare) in SEC buffer (50 mM Tris, pH 8.0, 150 mM NaCl, 10% glycerol, 2 mM TCEP, and 0.001% Triton X-100).
The harvest time (72 hours post infection) was indicated by percent cell viability (to 85-90%) and increased cell diameter (3-4 μm). […] For purification, the cell paste was resuspended in 500 mL lysis buffer (50 mM Tris pH 8.0, 150 mM NaCl, 25 mM imidazole, 10% glycerol, 2 mM MgCl2, 2 mM TCEP+protease inhibitor cocktail. After lysis, cellular debris was removed by centrifugation at 36K×g for 1 hour. The resulting supernatant was filtered at 0.2 micron before applying to a 1 mL nickel charged IMAC column (HisTrap, GE). The bound resin was washed to baseline with 50 CV of 50 mM Tris pH 8.0, 150 mM NaCl, 25 mM imidazole, 10% glycerol, 2 mM MgCl2, 2 mM TCEP before eluting over a 20 CV gradient to 100% with wash buffer containing 500 mM imidazole. Pooled fractions containing PP2A were combined and diluted 10× with 50 mM Tris pH 8.0, 10% glycerol, 1 mM TCEP and applied to a 1 mL AIEX resin (HiTrap QFF, GE). The bound resin was washed with dilution buffer and PP2A was eluted over a 20 CV gradient to 100% 50 mM Tris pH 8.0, 500 mM NaCl, 10% glycerol, 1 mM TCEP and was further diluted 1:1 with 50 mM Tris pH 8.0, 150 mM NaCl, 10% glycerol, and 1 mM TCEP buffer.
The biochemical EC50 (half-maximal concentration required for full activation) of compounds for the activation of AMPK was evaluated by ^33P-based assay using SAMS peptide (commercially available) derived from ACC-1. Twenty μl of phosphorylated AMPK diluted in assay buffer, (50 mM HEPES, 1 mM EGTA, 10 mM MgCl2, 0.25 mM DTT, 0.01% Tween-20, 0.01% BSA (pH 7.5)) was added to 384 well plates containing 1 μL of test compound. Following a fifteen minute room temperature incubation, 10 μL of protein phosphatase PP2A was added to the plate to dephosphorylate pThr172 of AMPK. […] The reaction was terminated after 60 minutes incubation at room temperature by the addition of 15 μL of 2% H3PO4.

[1] = counts as % of positive control wells (enzyme, allosteric activator or AMP, PP2A and substrate)

Sequence of human AMPK (full-length γ1, β1 and α1 subunits) (Q13131 whole entry): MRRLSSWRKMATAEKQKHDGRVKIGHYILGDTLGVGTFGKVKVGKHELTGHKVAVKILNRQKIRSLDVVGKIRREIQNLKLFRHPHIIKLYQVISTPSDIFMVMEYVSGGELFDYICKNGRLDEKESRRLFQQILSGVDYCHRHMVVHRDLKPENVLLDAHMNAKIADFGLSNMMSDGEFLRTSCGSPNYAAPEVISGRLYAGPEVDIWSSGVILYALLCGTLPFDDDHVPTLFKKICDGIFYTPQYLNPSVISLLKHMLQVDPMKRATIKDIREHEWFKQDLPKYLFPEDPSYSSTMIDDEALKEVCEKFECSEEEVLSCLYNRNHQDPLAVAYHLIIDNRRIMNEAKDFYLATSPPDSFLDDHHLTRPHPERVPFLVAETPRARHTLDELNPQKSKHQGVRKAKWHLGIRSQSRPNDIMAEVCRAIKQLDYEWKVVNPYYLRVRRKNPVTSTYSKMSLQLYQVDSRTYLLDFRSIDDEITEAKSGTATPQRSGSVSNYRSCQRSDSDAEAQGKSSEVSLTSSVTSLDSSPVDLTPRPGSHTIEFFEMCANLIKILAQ
Sequence of human AMPK (full-length γ1, β1 and α1 subunits) (Q9Y478 whole entry): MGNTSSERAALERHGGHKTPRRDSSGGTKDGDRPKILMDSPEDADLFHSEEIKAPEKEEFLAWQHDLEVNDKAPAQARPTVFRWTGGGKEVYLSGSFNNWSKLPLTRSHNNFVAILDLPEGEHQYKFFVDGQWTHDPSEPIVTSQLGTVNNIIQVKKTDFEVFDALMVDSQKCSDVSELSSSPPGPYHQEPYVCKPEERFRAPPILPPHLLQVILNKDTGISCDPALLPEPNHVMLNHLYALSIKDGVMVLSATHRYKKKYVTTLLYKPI
Sequence of human AMPK (full-length γ1, β1 and α1 subunits) (P54619 whole entry partner): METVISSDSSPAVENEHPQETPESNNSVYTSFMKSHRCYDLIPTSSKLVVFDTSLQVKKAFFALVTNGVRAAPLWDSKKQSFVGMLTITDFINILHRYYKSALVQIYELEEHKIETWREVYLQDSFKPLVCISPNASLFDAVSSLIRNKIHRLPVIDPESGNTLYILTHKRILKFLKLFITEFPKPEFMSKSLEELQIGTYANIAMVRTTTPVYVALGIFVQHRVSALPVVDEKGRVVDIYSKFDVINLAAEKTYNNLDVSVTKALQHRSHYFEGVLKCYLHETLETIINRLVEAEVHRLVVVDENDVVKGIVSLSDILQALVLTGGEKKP

Row | SMILES | EC50 | Emax [1] [%] | Maximum [1] [%]
1 | O=C(O)c1c[nH]c2cc(Cl)c(-c3ccc(C4(CO)COC4)cc3)cc12 [Example 96, 6-chloro-5-{4-[3-(hydroxymethyl)oxetan-3-yl]phenyl}-1H-indole-3-carboxylic acid] | 58.1 nM | 83 | –
2 | O=C(O)c1c[nH]c2cc(Cl)c(-c3ccc(C4(O)CCC4)cc3F)cc12 [Example 13, 6-chloro-5-[2-fluoro-4-(1-hydroxycyclobutyl)phenyl]-1H-indole-3-carboxylic acid] | 6.9 nM | 73 | –
3 | COc1nc(N2CC[C@@H](O)C2)ccc1-c1cc2c(C(=O)O)c[nH]c2cc1Cl [Example 185, 6-chloro-5-{6-[(3R)-3-hydroxypyrrolidin-1-yl]-2-methoxypyridin-3-yl}-1H-indole-3-carboxylic acid] | 2.9 nM | 106 | –
4 | COC[C@H](C)Oc1ccc(-c2cc3c(C(=O)O)c[nH]c3cc2Cl)cc1 [Example 159, 6-chloro-5-(4-{[(2S)-1-methoxypropan-2-yl]oxy}phenyl)-1H-indole-3-carboxylic acid] | 47.8 nM | 98.6 | –
5 | O=C(O)c1c[nH]c2cc(Cl)c(-c3ccc(-c4ccccc4O)cc3)cc12 [Example 67, 6-chloro-5-(2′-hydroxybiphenyl-4-yl)-1H-indole-3-carboxylic acid] | 2.4 nM | 112 | –
6 | O=C(O)c1c[nH]c2cc(Br)c(-c3ccc(-c4ccccc4O)cc3)cc12 [Example 68, 6-Bromo-5-(2′-hydroxybiphenyl-4-yl)-1H-indole-3-carboxylic acid] | 4.3 nM | 117 | –
7 | O=C(O)c1n[nH]c2cc(Cl)c(-c3ccc(C4CC(O)C4)cc3)cc12 [Example 120, 6-Chloro-5-(4-((1S,3S)-3-hydroxycyclobutyl)phenyl)-1H-indazole-3-carboxylic acid] | – | – | 88
8 | O=C(O)c1n[nH]c2cc(Cl)c(-c3cccc(O)c3)cc12 [Example 112, 6-Chloro-5-(3-hydroxyphenyl)-1H-indazole-3-carboxylic acid] | 1320 nM | 80 | –
9 | CC(C)(CO)c1ccc(-c2cc3c(C(=O)O)c[nH]c3cc2Cl)cc1 [Example 36, 6-chloro-5-[4-(1-hydroxy-2-methylpropan-2-yl)phenyl]-1H-indole-3-carboxylic acid] | 7.1 nM | 70 | –
10 | O=C(O)c1c[nH]c2cc(Cl)c(-c3ccc(OCc4ncccn4)cc3)cc12 [Example 160, 6-chloro-5-[4-(pyrimidin-2-ylmethoxy)phenyl]-1H-indole-3-carboxylic acid] | 17.3 nM | 118 | –
11 | COc1cc(-c2cc3c(C(=O)O)c[nH]c3cc2Cl)ccc1C(C)(C)O [Example 56, 6-chloro-5-(4-(2-hydroxypropan-2-yl)-3-methoxyphenyl)-1H-indole-3-carboxylic acid] | 334 nM | 137 | –
12 | CC(C)(CO)c1ccc(-c2cc3c(C(=O)O)c[nH]c3cc2Cl)cc1F [Example 163, 6-chloro-5-[3-fluoro-4-(1-hydroxy-2-methylpropan-2-yl)phenyl]-1H-indole-3-carboxylic acid] | 12.9 nM and 10.3 nM | 110 | –
13 | COc1cc(-c2c(F)cc3[nH]cc(C(=O)O)c3c2F)ccc1C1(O)CCC1 [Example 145] | 57.9 nM | 65.2 | –
14 | Cc1cc2[nH]cc(C(=O)O)c2cc1-c1ccc(C2(CO)CC2)cc1 [Example 27, 5-{4-[1-(hydroxymethyl)cyclopropyl]phenyl}-6-methyl-1H-indole-3-carboxylic acid] | 36.9 nM | 107 | –
15 | O=S(=O)(O)c1c[nH]c2cc(Cl)c(-c3ccc(C4CCOCC4)cc3)cc12 [Example 134, 6-Chloro-5-(4-(tetrahydro-2H-pyran-4-yl)phenyl)-1H-indole-3-sulfonic acid] | 82.8 nM | 16 | –
16 | COC1CCN(CCCOc2ccc(-c3cc4c(C(=O)O)c[nH]c4cc3Cl)cc2)CC1 [Example 187, 6-chloro-5-{4-[3-(4-methoxypiperidin-1-yl)propoxy]phenyl}-1H-indole-3-carboxylic acid] | 61.4 nM | 105 | –
17 | CC(C)(CO)c1ccc(-c2c(F)cc3[nH]cc(C(=O)O)c3c2F)cc1 [Example 26, 4,6-difluoro-5-[4-(1-hydroxy-2-methylpropan-2-yl)phenyl]-1H-indole-3-carboxylic acid] | 124 nM | 74 | –
18 | COc1cc(-c2cc3c(C(=O)O)c[nH]c3cc2Cl)ccc1OCCCO [Example 59, 6-chloro-5-[4-(3-hydroxypropoxy)-3-methoxyphenyl]-1H-indole-3-carboxylic acid] | 133 nM | 75 | –
19 | NC(=O)Cc1ccc(-c2cc3c(C(=O)O)n[nH]c3cc2Cl)cc1 [Example 123, 5-(4-(2-Amino-2-oxoethyl)phenyl)-6-chloro-1H-indazole-3-carboxylic acid] | 100 nM | 57 | –
20 | O=C(O)c1n[nH]c2cc(Cl)c(-c3ccc(CCO)cc3)cc12 [Example 109, 6-Chloro-5-(4-(2-hydroxyethyl)phenyl)-1H-indazole-3-carboxylic acid] | 82.3 nM | 94 | –
21 | CC(=O)N1CCN(c2ccc(-c3cc4c(C(=O)O)n[nH]c4cc3Cl)cc2)CC1 [Example 107, 5-(4-(4-Acetylpiperazin-1-yl)phenyl)-6-chloro-1H-indazole-3-carboxylic acid] | 43.5 nM | 60 | –
22 | O=C(O)c1c[nH]c2cc(Cl)c(-c3ccc(CCCO)cc3)cc12 [Example 80, 6-chloro-5-[4-(3-hydroxypropyl)phenyl]-1H-indole-3-carboxylic acid] | 182 nM | 108 | –
23 | O=C(O)c1c[nH]c2cc(Cl)c(-c3ccc(OCC4COC4)cc3)cc12 [Example 89, 6-chloro-5-[4-(oxetan-3-ylmethoxy)phenyl]-1H-indole-3-carboxylic acid] | 65.4 nM | 99 | –
24 | CN1CCN(c2ccc(-c3cc4c(C(=O)O)n[nH]c4cc3Cl)cc2)CC1 [Example 106, 6-Chloro-5-(4-(4-methylpiperazin-1-yl)phenyl)-1H-indazole-3-carboxylic acid] | 73 nM | 94 | –
25 | O=C1COC(c2ccc(-c3cc4c(C(=O)O)c[nH]c4cc3Cl)cc2)CN1 (stereo not drawn) [Example 79, 6-chloro-5-[4-(5-oxomorpholin-2-yl)phenyl]-1H-indole-3-carboxylic acid] | 104 nM | 102 | –
26 | O=C(O)c1c[nH]c2cc(F)c(-c3ccc(C4CCCO4)cc3)c(F)c12 (stereo not drawn) [Example 152, 4,6-difluoro-5-[4-(tetrahydrofuran-2-yl)phenyl]-1H-indole-3-carboxylic acid] | – | 112 | –
27 | CC(=O)N1CC(COc2ccc(-c3cc4c(C(=O)O)c[nH]c4cc3Cl)cc2)C1 [Example 9, 5-{4-[(1-acetylazetidin-3-yl)methoxy]phenyl}-6-chloro-1H-indole-3-carboxylic acid] | 71.2 nM | 81 | –
28 | O=C(O)c1n[nH]c2cc(Cl)c(-c3ccc4c(c3)OCCO4)cc12 [Example 121, 6-Chloro-5-(2,3-dihydrobenzo[b][1,4]dioxin-6-yl)-1H-indazole-3-carboxylic acid] | 369 nM | 102 | –
